The values that follow come from ChEMBL document CHEMBL1201862, “PubChem BioAssay data set” (2004).

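Compound exposure: 48 hours, 5 concentrations, 96-well plates. GI50 is the concentration that inhibits growth by half.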 Calls of active or inactive are those of the source. No stated cut-off is given here; in the data, active = GI50 up to about 1.1 µM and inactive = higher. A value given as a limit tells only on which side of the number the result lay.

Some test systems named below: SNB-75; NCI-H460; T47D; LOX IMVI; COLO 205; UO-31; SK-OV-3; SF-295; UACC-257; OVCAR-8; SW-620; IGROV-1; NCI-H226; SK-MEL-28; RPMI-8226; HL-60; SN12C; CAKI-1; NCI-H522; PC-3.
Assay in all cases: growth of human tumour cells (NCI), 48 h

In the case of `CN1c2ccccc2C(=O)NC12CCNCC2`, the GI50 with SNB-75, in the test on NCI-H460, in the test with T47D, in the test on LOX IMVI, in the test with COLO 205 and in the test with UO-31 was > 100 µM (inactive) throughout. The GI50 with SK-OV-3, with SF-295, with UACC-257, in the test on OVCAR-8, in the test on SW-620 and with IGROV-1 was > 100 µM (inactive) throughout. The GI50 in the test with NCI-H226, in the test with SK-MEL-28, with RPMI-8226 and with HL-60 was > 100 µM (inactive) throughout.

Take `CC(C)C1CC=NN1C(=O)OC(C)(C)C` (centres undefined): the GI50 with SNB-75, with NCI-H460, in the test on T47D, in the test on LOX IMVI, in the test on SN12C and in the test on COLO 205 was > 100 µM (inactive) in each case. The GI50 in the test with UO-31, in the test on SK-OV-3, in the test on SF-295, in the test on UACC-257, with OVCAR-8 and in the test with SW-620 was > 100 µM (inactive) in each case. For the same compound, the GI50 in the test on IGROV-1, with NCI-H226, in the test with RPMI-8226, in the test on CAKI-1, in the test with HL-60 and in the test on NCI-H522 was > 100 µM (inactive) each time.

Turning to `O=c1[nH]c2ccc([N+](=O)[O-])c(Cl)c2c2ccccc12`, the GI50 is 9.04 µM (inactive) with SNB-75; 1.87 µM (inactive) in the test on NCI-H460; 19.8 µM (inactive) with T47D; 1.68 µM (inactive) in the test on LOX IMVI; 2.58 µM (inactive) with SN12C; 5.18 µM (inactive) in the test with COLO 205. The GI50 in the test with UO-31 is 9.33 µM (inactive); in the test on SK-OV-3 it was 1.66 µM (inactive); with SF-295, 2.62 µM (inactive); in the test on UACC-257, 2.42 µM (inactive); in the test with OVCAR-8 it was 1.29 µM (inactive); with SW-620 it was 1.58 µM (inactive). The GI50 in the test with IGROV-1 was 5.87 µM (inactive); with NCI-H226, 11.5 µM (inactive); with SK-MEL-28, 11 µM (inactive); in the test on RPMI-8226, 0.586 µM (active); with CAKI-1, 2.41 µM (inactive); in the test with HL-60 it was 2.35 µM (inactive). For the same compound, in the test on NCI-H522, the GI50 is 3.13 µM (inactive).

As to `O=[N+]([O-])c1cc2ccc1OCc1cccc(n1)COc1ccc(cc1[N+](=O)[O-])/C=N\CCCCCCCC/N=C\2`, the GI50 in the test on SNB-75, in the test with NCI-H460, in the test with PC-3, in the test on LOX IMVI, in the test on SN12C and with COLO 205 was > 100 µM (inactive) each time. For the same compound, the GI50 in the test with UO-31, in the test with SF-295, in the test on UACC-257, in the test with OVCAR-8, in the test with SW-620 and in the test on IGROV-1 was > 100 µM (inactive) in each case. For the same compound, the GI50 with NCI-H226, in the test on SK-MEL-28, in the test on RPMI-8226, in the test with CAKI-1 and with NCI-H522 was > 100 µM (inactive) in each case.

As for `Cc1ccc(C(=O)N/N=C(\N=N\c2ccccc2[N+](=O)[O-])c2ccc(N(C)C)cc2)cc1`, the GI50 was 66.8 µM (inactive) in the test on NCI-H460; > 100 µM (inactive) with PC-3; > 100 µM (inactive) with LOX IMVI; > 100 µM (inactive) with SN12C; > 100 µM (inactive) in the test with COLO 205; 89.1 µM (inactive) in the test with UO-31. Moreover, the GI50 in the test with SK-OV-3, with SF-295, in the test on UACC-257, in the test with OVCAR-8, with SW-620 and in the test with IGROV-1 was > 100 µM (inactive) in each case. For the same compound, the GI50 with NCI-H226 is > 100 µM (inactive); in the test with SK-MEL-28 it was > 100 µM (inactive); in the test with RPMI-8226, > 100 µM (inactive); with CAKI-1 it was > 100 µM (inactive); with HL-60 it was 84.9 µM (inactive); in the test on NCI-H522 it was > 100 µM (inactive).

Consider `CCOC(=O)c1c(N)n(-c2ccccc2)c(=O)n(-c2ccccc2)c1=O`, for which the GI50 with SNB-75, in the test with NCI-H460, in the test on T47D, in the test on LOX IMVI, with SN12C and in the test with COLO 205 was > 100 µM (inactive) each time. Besides, the GI50 with UO-31, with SF-295, in the test on UACC-257, with OVCAR-8, in the test on SW-620 and in the test on IGROV-1 was > 100 µM (inactive) throughout. Besides, the GI50 with NCI-H226, in the test with SK-MEL-28, with RPMI-8226, in the test with HL-60 and in the test with NCI-H522 was > 100 µM (inactive) throughout.

Regarding `CCCCCCCCCCCCCC[C@@H](O)[C@H]1CC[C@H]([C@H]2CC[C@H]([C@H](O)CCCCCC[C@@H](O)CC3=C[C@H](C)OC3=O)O2)O1`, the GI50 was > 25 µM (inactive) in the test with SNB-75; 0.0552 µM (active) in the test with NCI-H460; > 25 µM (inactive) in the test with PC-3; 1.22 µM (inactive) in the test on LOX IMVI; 2.2 µM (inactive) in the test on SN12C; > 25 µM (inactive) in the test on COLO 205. Moreover, the GI50 in the test with UO-31 is > 25 µM (inactive); in the test with SK-OV-3, > 25 µM (inactive); in the test on SF-295, > 25 µM (inactive); with UACC-257, 3.65 µM (inactive); in the test on OVCAR-8, 1.75 µM (inactive); with SW-620, > 25 µM (inactive). Moreover, the GI50 in the test on IGROV-1 is > 25 µM (inactive); in the test with NCI-H226, > 25 µM (inactive); with SK-MEL-28, > 25 µM (inactive); with CAKI-1 it was > 25 µM (inactive); with HL-60, 2.22 µM (inactive); in the test on NCI-H522, 8.93 µM (inactive).

On to `Cc1cc2nc(N3C(=O)/C(=C/c4ccc(Cl)cc4)N=C3c3ccccc3)sc2cc1C`, for which the GI50 in the test with SNB-75 was 22.3 µM (inactive); in the test with NCI-H460, 23.7 µM (inactive); with T47D, 27.5 µM (inactive); with PC-3 it was 26.5 µM (inactive); in the test on LOX IMVI, 20.5 µM (inactive); with SN12C, 24 µM (inactive). Moreover, the GI50 in the test on COLO 205 is 16.1 µM (inactive); with UO-31, 26.8 µM (inactive); with SK-OV-3, 46.2 µM (inactive); with SF-295, 31.2 µM (inactive); in the test on UACC-257, 28.4 µM (inactive); in the test with OVCAR-8, 28.4 µM (inactive). Further, the GI50 with SW-620 was 27.6 µM (inactive); in the test on IGROV-1, 14.6 µM (inactive); in the test on SK-MEL-28, 55.7 µM (inactive); with RPMI-8226, 35.9 µM (inactive); in the test on CAKI-1, 26.4 µM (inactive); in the test on HL-60, 21.6 µM (inactive).

In the case of `O=C(c1ccccc1)c1ccc(N2C(=O)/C(=C/c3cccc([N+](=O)[O-])c3)N=C2c2ccccc2)c(N2C(=O)/C(=C/c3cccc([N+](=O)[O-])c3)N=C2c2ccccc2)c1`, the GI50 is 15.1 µM (inactive) in the test with SNB-75; 5.28 µM (inactive) in the test on NCI-H460; 24 µM (inactive) in the test on T47D; 27.3 µM (inactive) with PC-3; 42 µM (inactive) in the test with LOX IMVI; 98.4 µM (inactive) in the test on SN12C. The GI50 was 2.77 µM (inactive) in the test with COLO 205; 66.7 µM (inactive) with UO-31; > 100 µM (inactive) in the test with SK-OV-3; 16.2 µM (inactive) in the test with SF-295; 36.2 µM (inactive) in the test on UACC-257; 42.5 µM (inactive) in the test on OVCAR-8. The GI50 with SW-620 is 32.9 µM (inactive); with IGROV-1, 32.4 µM (inactive); in the test on SK-MEL-28 it was 78.3 µM (inactive); in the test on RPMI-8226 it was 12.8 µM (inactive); in the test on CAKI-1, 49.8 µM (inactive); in the test on HL-60, 0.759 µM (active).

On to `CC[C@H]1C=CCC[C@@]2(C[C@@H]3CC[C@H]4[C@@H](C(=O)OCCCCCCCCCCCCCCCC(=O)N(CCCNC(C)=O)C[C@H](CCNC(C)=O)OC(C)=O)[C@@]5(CCC[C@@H](C)O5)NC(=[N+]34)N2)O1`, for which the GI50 in the test with NCI-H460 was 1.6 µM (inactive); in the test on PC-3, 1.07 µM (active); in the test with LOX IMVI, 1.64 µM (inactive); in the test on SN12C it was 2.01 µM (inactive); with COLO 205, 1.28 µM (inactive); with UO-31, 1.78 µM (inactive). Further, the GI50 with SK-OV-3 is 1.74 µM (inactive); in the test with SF-295 it was 1.86 µM (inactive); in the test with UACC-257, 1.24 µM (inactive); in the test on OVCAR-8, 1.4 µM (inactive); in the test on SW-620, 1.53 µM (inactive); in the test with IGROV-1, 1.31 µM (inactive). In addition, the GI50 was 1.41 µM (inactive) in the test on NCI-H226; 1.28 µM (inactive) in the test on SK-MEL-28; 0.227 µM (active) in the test on RPMI-8226; 2.22 µM (inactive) in the test with CAKI-1; 1.14 µM (inactive) in the test on HL-60; 1.24 µM (inactive) in the test on NCI-H522.

Consider `COc1cc(/C=C2/SC(c3ccccc3)N(c3cccc(NC(C)=O)c3)C2=O)cc(OC)c1OC` (centres undefined), for which the GI50 with NCI-H460 was 71.9 µM (inactive); in the test on T47D, 45.7 µM (inactive); in the test with LOX IMVI, 40.3 µM (inactive); in the test on SN12C it was 91.8 µM (inactive); in the test with COLO 205, 41.9 µM (inactive); with UO-31 it was 16.6 µM (inactive). For the same compound, the GI50 in the test with SK-OV-3 was 75 µM (inactive); in the test with SF-295 it was 58.5 µM (inactive); in the test on UACC-257, 67.8 µM (inactive); in the test with OVCAR-8, 52.6 µM (inactive); with SW-620, 57.1 µM (inactive); with NCI-H226, 62.5 µM (inactive). For the same compound, the GI50 is 34 µM (inactive) in the test with SK-MEL-28; 30.3 µM (inactive) with RPMI-8226; > 100 µM (inactive) with CAKI-1; 33.7 µM (inactive) with HL-60; 18.2 µM (inactive) in the test with NCI-H522.
